Consider 12 molecules from patent publication US6815460B2, “Process for preparing prodrugs of benzenesulfonamide-containing cox-2 inhibitors” (Pharmacia Corporation, priority 1996, dated 2004).

Counter-ions that a name gives are not always drawn.

Series [1] deals with Male Sprague-Dawley rats. Kind of series: Rat Carrageenan-induced Analgesia Test. It counts as in vivo. Conditions: dosed orally, inhibition of hyperalgesic foot withdrawal, three hours after carrageenan. Here is the method: Rat Carrageenan-induced Analgesia Test
The rat carrageenan analgesia test was performed with materials, reagents and procedures essentially as described by Hargreaves, et al., (Pain, 32, 77 (1988)). Male Sprague-Dawley rats were treated as previously described for the Carrageenan Foot Pad Edema test. Three hours after the injection of the carrageenan, the rats were placed in a special plexiglass container with a transparent floor having a high intensity lamp as a radiant heat source, positionable under the floor. After an initial twenty minute period, thermal stimulation was begun on either the injected foot or on the contralateral uninjected foot. A photoelectric cell turned off the lamp and timer when light was interrupted by paw withdrawal. The time until the rat withdraws its foot was then measured. The withdrawal latency in seconds was determined for the control and drug-treated groups, and percent inhibition of the hyperalgesic foot withdrawal determined.

Series [2] has as its system Male Sprague-Dawley rats. Briefly: Rat Carrageenan Foot Pad Edema Test. It counts as in vivo. As to conditions: dosed orally one hour before carrageenan, foot volume three hours after carrageenan. Here is the method: Rat Carrageenan Foot Pad Edema Test
The carrageenan foot edema test was performed with materials, reagents and procedures essentially as described by Winter, et al., (Proc. Soc. Exp. Biol. Med., 111, 544 (1962)). Male Sprague-Dawley rats were selected in each group so that the average body weight was as close as possible. Rats were fasted with free access to water for over sixteen hours prior to the test. The rats were dosed orally (1 mL) with compounds suspended in vehicle containing 0.5% methylcellulose and 0.025% surfactant, or with vehicle alone. One hour later a subplantar injection of 0.1 mL of 1% solution of carrageenan/sterile 0.9% saline was administered and the volume of the injected foot was measured with a displacement plethysmometer connected to a pressure transducer with a digital indicator. Three hours after the injection of the carrageenan, the volume of the foot was again measured. The average foot swelling in a group of drug-treated animals was compared with that of a group of placebo-treated animals and the percentage inhibition of edema was determined (Otterness and Bliven, Laboratory Models for Testing NSAIDs, in Non-steroidal Anti-Inflammatory Drugs, (J. Lombardino, ed. 1985)).
Background: In the carrageenan paw model, swelling and tenderness develop within hours.

Series [3] is described as follows: In vitro conversion of prodrugs by S9 liver fractions. Conditions: purified S9 fractions (3 mg/ml), compound 10 ug/ml, 37° C., pH 7.2, 90 minutes, HPLC. It counts as in vitro ADME. How it is done:
IN VITRO CONVERSION OF PRODRUGS
The conversion of the prodrugs by S9 liver fractions was determined by the following method. The S9 liver-fraction suspension (IIAM) was thawed and the suspension was stirred by vortex. The suspension was mixed with 12M urea at 1:7, v:v, (yielding […] final concentration) and further stirred by vortex. The S9 suspension solution was partially purified by solid phase extraction (Vac-Elut apparatus:C18 columns (Varian #1210-2001)) eluting with acetonitrile. The fractions were mixed by vortex and concentrated to dryness under nitrogen (no heat). The fractions were resuspended in 100 μl acetonitrile:phosphate buffer (8.3 mM, pH 7.2) (20:80).
The compounds were dissolved in water (0.2 ml, 10 ug/ml) and incubated at 37° C. (pH 7.2, 90 minutes) with purified S9 fractions (0.2 ml, 3 mg/ml). Conversion of the prodrug to the active COX-2 inhibitor was followed by HPLC (Beckmann System Gold, Novapak C18 column (3.9×150 mm), acetonitrile:phosphate buffer (8.3 mM, pH 7.2) (20:80-40:60), UV detection 240 nm). Quantitation of the conversion of the prodrug was determined by measurement of integrated HPLC peak area.

In the case of `CC(=O)NS(=O)(=O)c1ccc(-c2c(-c3cccc(F)c3)noc2C)cc1` [Example 13, N-[[4-[3-(3-Fluorophenyl)-5-methylisoxazol-4-yl]phenyl]sulfonyl]acetamide], the melting point (commonly the temperature of the solid-liquid transition) fell in the range of 144 to 145 °C. In addition, in the series on Male Sprague-Dawley rats [1], the “ANALGESIA % Inhibition @ 10 mg/kg body weight” value amounted to 61.5%. Moreover, the “RAT PAW EDEMA % Inhibition @ 30 mg/kg body weight” value in the series on Male Sprague-Dawley rats [2] is recorded as 58%.

As for `CC(=O)NS(=O)(=O)c1ccc(-c2c(-c3cccc(F)c3)noc2C)cc1` [Example 14, N-[[4-[3-(3-Fluorophenyl)-5-methylisoxazol-4-yl]phenyl]sulfonyl]acetamide, Sodium Salt], in the series with Male Sprague-Dawley rats [1] (Sodium Salt), the “ANALGESIA % Inhibition @ 10 mg/kg body weight” value is 41%. In series [3], the “Metabolism of Prodrugs: Parent (% remaining)” value (“Metabolism … (% remaining)” for short) was found to be 63.4%. Also, the “RAT PAW EDEMA % Inhibition @ 30 mg/kg body weight” value in the series on Male Sprague-Dawley rats [2] (Sodium Salt) is on record as 65%. As to `CCC(=O)NS(=O)(=O)c1ccc(-c2c(-c3ccccc3)noc2C)cc1` [Example 18, N-[[4-(5-Methyl-3-phenylisoxazol-4-yl]phenyl]sulfonyl]propanamide, Sodium Salt], the “Metabolism … (% remaining)” value in series [3] came to 3.3%. Regarding `CCCC(=O)NS(=O)(=O)c1ccc(-c2c(-c3ccccc3)noc2C)cc1` [Example 25, N-[[4-(5-Methyl-3-phenylisoxazol-4-yl)phenyl]sulfonyl]butanamide, Sodium Salt], the “ANALGESIA % Inhibition @ 10 mg/kg body weight” value with Male Sprague-Dawley rats [1] stood at 33%. Further, the “Metabolism … (% remaining)” value in series [3] is 0.8%. Moreover, in the series on Male Sprague-Dawley rats [2], the “RAT PAW EDEMA % Inhibition @ 30 mg/kg body weight” value is 60%. `CNS(=O)(=O)c1ccc(-n2cccc2-c2ccc(F)cc2)cc1` [Example 78, 4-[2-(4-Fluorophenyl)-1H-pyrrol-1-yl]-N-methylbenzenesulfonamide] returned a melting point of 174 °C. Take `Cc1onc(-c2ccccc2)c1-c1ccc(S(=O)(=O)NCC(=O)O)cc1.O=C(O)O` [Example 79, N-[[4-(5-Methyl-3-phenylisoxazol-4-yl)phenyl]sulfonyl]glycine]: the melting point lay within 242 to 248 °C.

`Cc1onc(-c2ccccc2)c1-c1ccc(S(=O)(=O)NCC(=O)[O-])cc1.[Na+]` [Example 80, N-[[4-(5-Methyl-3-phenylisoxazol-4-yl)phenyl]sulfonyl]glycine, Sodium Salt]: the melting point is 216 °C (dec.). On the same count and under the same terms, the value for `Cc1onc(-c2ccccc2)c1-c1ccc(S(=O)(=O)NC(=O)CN)cc1` [Example 81, 2-Amino-N-[[4-(5-methyl-3-phenylisoxazol-4-yl)phenyl]sulfonyl]acetamide] was 230.7 to 234.7 °C; that for `CC(=O)NCC(=O)NS(=O)(=O)c1ccc(-c2c(-c3ccccc3)noc2C)cc1` [Example 82, 2-(Acetylamino)-N-[[4-(5-methyl-3-phenylisoxazol-4-yl)phenyl]sulfonyl]acetamide] was 218.2 to 219.3 °C. On the same count and under the same terms, the value for `CCC(=O)NS(=O)(=O)c1ccc(C2=C(c3ccccc3)COC2=O)cc1` [Example 83] was 182.3 to 183.4 °C. Still for that read-out and setting: the same measure for `CCC(=O)NS(=O)(=O)c1ccc(-n2cc(C(F)(F)F)nc2-c2cccnc2C)cc1` [Example 84, N-[[4-[2-(2-Methylpyridin-3-yl)-4-trifluoromethylimidazol-1-yl]phenyl]sulfonyl]propanamide]: 217 to 218 °C; for `CCC(=O)[N-]S(=O)(=O)c1ccc(-n2cc(C(F)(F)F)nc2-c2cccnc2C)cc1.[Na+]` [Example 85, N-[[4-(2-(2-Methylpyridin-3-yl)-4-trifluoromethylimidazol-1-yl]phenyl]sulfonyl]propanamide, Sodium Salt]: 298 °C (dec.).
